This is an account of results in US12139481B2, “Compositions comprising macrocycle derivatives incorporating bridged macrocycles and methods of producing and using same” (Southwestern Oklahoma State University, priority 2015, dated 2024).

Common to all, as to assay type: cell-based
Assay [1] relates to Plasmodium falciparum D6 clone (Sierra Leon, chloroquine-sensitive). Put plainly: In vitro antimalarial assay, chloroquine-sensitive D6 clone. As to conditions: D6 clone. The procedure, abridged: (§1)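 Parasites grown in type A human RBCs; assay run on infected cell suspension at 2% parasitemia and 2% hematocrit, in duplicate at several concentrations. IC50 taken from dose curves, per the Makler method, with DMSO as vehicle; Vero cytotoxicity run in parallel to derive a selectivity index.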

Assay [2] deals with Plasmodium falciparum W2 clone (Indochina, chloroquine-resistant). Nature of the assay: In vitro antimalarial assay, chloroquine-resistant W2 clone. As to conditions: W2 clone. The procedure, abridged:
as §1

The test system of assay [3] is S. mansoni newly transformed schistosomula (NTS). Nature of the assay: In vitro testing on Schistosoma mansoni newly transformed schistosomula (NTS), viability score. Put shortly:
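Mechanically transformed S. mansoni (Liberian strain) NTS, cultured overnight, exposed at 100 per well to compound (from 10 mM DMSO stock; ≤1% DMSO controls) at 37 °C, 5% CO2 for 72 h. Viability scored microscopically from 3 (normal activity, intact tegument) to 0 (dead, granulated).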

For assay [4], the system named is S. mansoni adult worms. Put plainly: In vitro tests on Schistosoma mansoni adult worms, viability score. To be noted: adult S. mansoni at 10 μM, 72 h. As for the experimental part: All assays were prepared in compliance with the laboratory SOP described herein above. Female NMRI mice (age 3 weeks, weight ca. 14 g) were purchased from Charles River (Sulzfeld) or Harlan Laboratories (Blackthorn, United Kingdom). The animals were allowed to adapt for 1 week under controlled conditions (22° C., 50% humidity, 12 hours light, and free access to water and rodent diet) before experimental handling. To obtain adult schistosomes, NMRI mice were infected subcutaneously with 80 to 100 cercariae. After 7 to 8 weeks, the mice were euthanized with CO2, and the worms were collected from the hepatic portal and mesenteric veins. Two pairs of adult worms were placed in each well of a 24-well plate with 2 ml culture medium and the test compound. […] Worms were kept in an incubator at 37° C. and 5% CO2 for up to 72 hours. After 72 hours, worm condition was microscopically evaluated using a scale from 3 (normal activity and no tegument alteration) to 0 (dead, completely granulated). Active compounds progressed into IC50 determination. […] For the in vitro drug sensitivity assays, all viability scores were averaged across replicates and normalized to the average viability scores of the control wells (Microsoft Office Excel 2010). […]

Setting [5] is: molar IC50 ratio versus chloroquine.

pIC50: −log10 of the molar value.

Take `CN1CCCN2CCN(CCCN(Cc3ccccc3)CC2)CC1.[Cl-].[Cl-].[Fe+2]` [NS12]: the “P. falciparum D6 IC50” value in assay [1] came to 0.1371 µg/mL. Besides, the pIC50 in assay [1] (converted with molecular weight, read-out: P. falciparum D6 IC50) is 6.52; in assay [2] (converted with molecular weight, read-out: P. falciparum W2 IC50) it was 6.59. Besides, the “X more potent than chloroquine” value in assay [1] (setting [5]) came to 0.12; in assay [2] (setting [5]) it was 2.67. Moreover, the “P. falciparum W2 IC50” value in assay [2] turned out to be 0.1164 µg/mL. The “Effect at 72 h (%)” value in assay [3] (NTS S. mansoni at 10 μM) is 100.00%; in assay [3] (NTS S. mansoni, 33 μM) it was 100.00%; in assay [4], 2.08%. This molecule showed a half-maximal inhibitory concentration (IC50) in assay [3] (NTS, 72 hours post-incubation) of 6.69 µM.
